The values that follow come from patent publication US6432987B1, “Substituted N-benzylindol-3-ylglyoxylic acid derivatives having antitumor action” (Zentaris AG, priority 1999, dated 2002).

SMILES strings stand for the structures.

For the experiment, the system named is tubulin. As to the kind of experiment: tubulin polymerization assay. The format is biochemical. The conditions noted are these: result in words only. The text has this: It was possible to show the activity of the present compounds in a tubulin polymerization assay.

Take `Nc1ccc(Cn2cc(C(=O)C(=O)Nc3ccncc3)c3ccccc32)cc1` [Example D-68838, N-(Pyridin-4-yl)-[1-(4-aminobenzyl)indol-3-yl]glyoxyl-amide]: the “inhibition of the polymerization of tubulin” value is on record as “inhibits the polymerization of tubulin”.
